In data set [1] the test system is apomorphinic straightenings. Put plainly: Antagonism to apomorphinic straightenings (mice). The data set is classed as in vivo. To be noted: Mus musculus, ip, read-out: Antagonism to apomorphinic straightenings (mice) ED 50. The text has this:
(§1) I. C. Niemegeers and A. H. M. Jageneau in Arzneim-Forsch. (1960), 10, 1003.

The next data set in a line: Stair case test (rat). The data set is classed as in vivo. Particulars: po, sedative effect.
Data set [2] relates to apomorphine induced stereotypies. Put plainly: Antagonism to the apomorphine induced stereotypies (rat). The data set is classed as in vivo. Particulars: po.
From the text: as §1

The next data set in a line: Acute toxicity (mice). Particulars: mouse, in vivo, ip, read-out: Toxicity (mice) LD 50. As for the experimental part: The acute toxicity of the compounds of the invention was also tested intraperitoneally on mice.
The test system of data set [3] is vomiting induced by apomorphine. Put plainly: Antiemetic activity (dogs), vomiting induced by apomorphine. The data set is classed as in vivo. To be noted: one hour before apomorphine 0.1 mg/kg subcutaneous.
A further data set relates to gastric evacuation. Put plainly: Gastric evacuation test (rat). The data set is classed as in vivo. As for the experimental part: The compounds of formula (I) were administered orally simultaneously with 20 steel balls to wakeful rats starved for 20 hours.

Consider `COc1c(N)cc(Br)cc1C(=O)N[C@@H]1C[C@H]2CC[C@@H](C1)N2Cc1ccccc1` [compound 106], for which the ED50 stood at 0.053 mg/kg in data set [1], 8 mg/kg in the data set “Stair case test (rat)” and 1.6 mg/kg in data set [2]. Besides, the LD50 in the data set “Acute toxicity (mice)” stood at 160 mg/kg.

On to `COc1cccc(C(=O)N[C@@H]2C[C@H]3CC[C@@H](C2)N3Cc2ccc(Cl)cc2)c1OC` [compound 112], for which the ED50 in data set [1] came out at 0.029 mg/kg. Also, the LD50 in “Acute toxicity (mice)” came to 220 mg/kg.

In the case of `COc1cccc(C(=O)N[C@@H]2C[C@H]3CC[C@@H](C2)N3Cc2cccc(F)c2)c1OC` [compound 113], in data set [1], the ED50 came to 0.016 mg/kg. Further, the LD50 in “Acute toxicity (mice)” is 140 mg/kg.

For `CCOc1cccc(C(=O)N[C@@H]2C[C@H]3CC[C@@H](C2)N3Cc2ccccc2)c1OCC` [compound 115], the ED50 turned out to be 0.038 mg/kg in data set [1], 1.3 mg/kg in “Stair case test (rat)” and 0.22 mg/kg in data set [2]. In addition, the LD50 in “Acute toxicity (mice)” was 53 mg/kg.

As to `COc1cccc(C(=O)N[C@@H]2C[C@H]3CC[C@@H](C2)N3Cc2cccc(C)c2)c1OC` [compound 118], the ED50 in data set [1] came out at 0.016 mg/kg. For the same compound, the LD50 in the data set “Acute toxicity (mice)” was 90 mg/kg.

Take `COc1cccc(C(=O)N[C@@H]2C[C@H]3CC[C@@H](C2)N3Cc2ccc(C)cc2)c1OC` [compound 120]: in data set [1], the ED50 was determined as 0.032 mg/kg. Besides, the LD50 in “Acute toxicity (mice)” is 100 mg/kg.

Turning to `COc1cc(N)c(Br)cc1C(=O)N[C@@H]1C[C@H]2CC[C@@H](C1)N2Cc1ccccc1Cl` [compound 121], the ED50 in data set [1] amounted to 0.024 mg/kg. Moreover, the LD50 in “Acute toxicity (mice)” is 250 mg/kg.

Turning to `CCOc1cc(N)c(Br)cc1C(=O)N[C@@H]1C[C@H]2CC[C@@H](C1)N2Cc1ccc(Cl)cc1` [compound 123], the figures for the ED50 (in data set [1]; in “Stair case test (rat)”; in data set [2]) were 0.041 mg/kg, 1.7 mg/kg and 0.2 mg/kg, respectively. The LD50 in “Acute toxicity (mice)” was > 400 mg/kg.

For the compound `CCOc1cc(N)c(Br)cc1C(=O)N[C@@H]1C[C@H]2CC[C@@H](C1)N2Cc1cccc(Cl)c1` [compound 126], in data set [1], the ED50 stood at 0.054 mg/kg. The LD50 in “Acute toxicity (mice)” was > 400 mg/kg.

`COc1cc(N)c(Cl)cc1C(=O)N[C@@H]1C[C@H]2CC[C@@H](C1)N2Cc1cccc(F)c1` [compound 127]: in data set [1], the ED50 was determined as 0.007 mg/kg. In addition, in the data set “Acute toxicity (mice)”, the LD50 turned out to be 200 mg/kg.

`COc1cccc(C(=O)N[C@@H]2C[C@H]3CC[C@@H](C2)N3Cc2ccc(Br)cc2)c1OC` [compound 129]: the ED50 in data set [1] stood at 0.008 mg/kg. For the same compound, the LD50 in the data set “Acute toxicity (mice)” worked out at 180 mg/kg.

Take `COc1cc(N)c(Br)cc1C(=O)N[C@@H]1C[C@H]2CC[C@@H](C1)N2Cc1ccccc1F` [compound 131]: the ED50 in data set [1] was 0.013 mg/kg. In addition, the LD50 in the data set “Acute toxicity (mice)” was found to be 250 mg/kg.

Regarding `COc1cc(N)c(Br)cc1C(=O)N[C@@H]1C[C@H]2CC[C@@H](C1)N2Cc1ccoc1` [compound 132], in data set [1], the ED50 stood at 0.12 mg/kg. Further, the LD50 in “Acute toxicity (mice)” was 200 mg/kg. Also, in data set [3] (0.01 mg/kg/po), the “Antiemetic activity: % inhibition of vomiting induced by apomorphine” value turned out to be 100%. The “Gastric evacuation: % animals whose stomach contains no ball after 90 minutes” value with gastric evacuation (0.6 mg/kg/po) came out at 25%; with gastric evacuation (1.3 mg/kg/po), 50%; with gastric evacuation (5 mg/kg/po) it was 75%; in the data set with gastric evacuation (10 mg/kg/po), 100%.

Regarding `COc1cc(OC)c(OC)c(C(=O)N[C@@H]2C[C@H]3CC[C@@H](C2)N3Cc2ccccc2)c1` [compound 135], the ED50 in data set [1] worked out at 0.01 mg/kg. Besides, the LD50 in “Acute toxicity (mice)” stood at 70 mg/kg.

Regarding `CCOc1c(OC)cccc1C(=O)N[C@@H]1C[C@H]2CC[C@@H](C1)N2Cc1ccccc1` [compound 139], the values for the ED50 (in data set [1]; in “Stair case test (rat)”; in data set [2]) were 0.01 mg/kg, 0.3 mg/kg and 0.06 mg/kg, respectively. Besides, the LD50 in the data set “Acute toxicity (mice)” was 76 mg/kg.

With `CCOc1cccc(C(=O)N[C@@H]2C[C@H]3CC[C@@H](C2)N3Cc2ccccc2)c1OC` [compound 140], the ED50 in data set [1] worked out at 0.019 mg/kg. The LD50 in the data set “Acute toxicity (mice)” was 70 mg/kg.

Regarding `CCOc1c(OC)cc(OC)cc1C(=O)N[C@@H]1C[C@H]2CC[C@@H](C1)N2Cc1ccccc1` [compound 141], the ED50 in data set [1] came to 0.035 mg/kg. Moreover, the LD50 in the data set “Acute toxicity (mice)” is 115 mg/kg.

Take `COc1cc([N+](=O)[O-])cc(C(=O)N[C@@H]2C[C@H]3CC[C@@H](C2)N3Cc2ccccc2)c1OC` [compound 142]: the ED50 in data set [1] came out at 0.012 mg/kg. Moreover, the LD50 in the data set “Acute toxicity (mice)” stood at 87.5 mg/kg.

As to `CCOc1c(OC)cccc1C(=O)N[C@@H]1C[C@H]2CCC[C@@H](C1)N2Cc1ccccc1` [compound 143], the ED50 in data set [1] was found to be 0.025 mg/kg; in the data set “Stair case test (rat)” it was 1.6 mg/kg; in data set [2] it was 0.26 mg/kg. In addition, the LD50 in “Acute toxicity (mice)” stood at 110 mg/kg.

For `CCOc1c(OC)cccc1C(=O)N[C@@H]1C[C@H]2CC[C@@H](C1)N2Cc1ccc(Cl)c(Cl)c1` [compound 145], in data set [1], the ED50 is 0.3 mg/kg. The LD50 in the data set “Acute toxicity (mice)” is > 400 mg/kg.

As to `COc1cc(Br)cc(C(=O)N[C@@H]2C[C@H]3CC[C@@H](C2)N3Cc2ccccc2)c1OC` [compound 147], in data set [1], the ED50 was found to be 0.042 mg/kg. Moreover, the LD50 in the data set “Acute toxicity (mice)” came to 165 mg/kg. The “Antiemetic activity: % inhibition of vomiting induced by apomorphine” value in data set [3] (0.1 mg/kg/po) was 100%. In addition, the “Gastric evacuation: % animals whose stomach contains no ball after 90 minutes” value is 25% in the data set on gastric evacuation (0.3 mg/kg/po), 63% in the data set on gastric evacuation (0.6 mg/kg/po) and 90% in the data set with gastric evacuation (10 mg/kg/po).

Turning to `COc1cccc(C(=O)N[C@@H]2C[C@H]3CCC[C@@H](C2)N3Cc2ccccc2)c1OC` [compound 148], the ED50 in data set [1] was determined as 0.008 mg/kg. Further, in “Acute toxicity (mice)”, the LD50 came to 100 mg/kg.

Take `COc1cccc(C(=O)N[C@@H]2C[C@H]3CC[C@@H](C2)N3Cc2ccc(F)cc2)c1OC` [compound 155]: the ED50 in data set [1] amounted to 0.005 mg/kg. In the data set “Acute toxicity (mice)”, the LD50 worked out at 140 mg/kg.

Regarding `COc1cc(SC)cc(C(=O)N[C@@H]2C[C@H]3CC[C@@H](C2)N3Cc2ccccc2)c1OC` [compound 168], the ED50 in data set [1] was 0.28 mg/kg. The LD50 in “Acute toxicity (mice)” worked out at 120 mg/kg.

`COc1cc(N)c(Cl)cc1C(=O)N[C@@H]1C[C@H]2CC[C@@H](C1)N2Cc1cccc(C)c1` [compound 169]: the results for the ED50 (in data set [1]; in “Stair case test (rat)”; in data set [2]) were 0.034 mg/kg, 3.5 mg/kg and 0.46 mg/kg, respectively. Besides, the LD50 in “Acute toxicity (mice)” was found to be 70 mg/kg.

`COc1cc(C(C)=O)cc(C(=O)N[C@@H]2C[C@H]3CC[C@@H](C2)N3Cc2ccccc2)c1OC` [compound 171]: the ED50 in data set [1] is 0.029 mg/kg. The LD50 in “Acute toxicity (mice)” was found to be 115 mg/kg.

Turning to `COc1cccc(C(=O)N[C@@H]2C[C@H]3CC[C@@H](C2)N3Cc2cccc(Cl)c2)c1OC` [compound 173], in data set [1], the ED50 is 0.013 mg/kg. For the same compound, the LD50 in the data set “Acute toxicity (mice)” worked out at 160 mg/kg.

As to `CCSc1cc(OC)c(OC)c(C(=O)N[C@@H]2C[C@H]3CC[C@@H](C2)N3Cc2ccccc2)c1` [compound 174], the ED50 in data set [1] turned out to be 0.034 mg/kg. Besides, the LD50 in “Acute toxicity (mice)” was determined as 95 mg/kg.

With `COc1cccc(C(=O)N[C@@H]2C[C@H]3CC[C@@H](C2)N3Cc2ccc(C#N)cc2)c1OC` [compound 180], the ED50 in data set [1] was 0.01 mg/kg. Further, in the data set “Acute toxicity (mice)”, the LD50 was found to be 275 mg/kg.

(Values after US4434170A, “Nor-tropane derivatives, and their application in therapeutics” (Delalande S.A., priority 1980, dated 1984).)
